# Reference: PubChem BioAssay AID256 (DTP/NCI, 2004)
# Where “and” joins values, the source holds several entries; their conditions need not be identical. Equal values may be shown once. Toxic doses and inconclusive results are not listed.
# Test system: CD2F1 mice, L1210 leukemia ip, survival T/C
# Test: NCI In Vivo Anticancer Drug Screen. Data for tumor model L1210 Leukemia (intraperitoneal) in CD2F1 (CDF1) mice
# Conditions: higher = longer survival
# Method in brief: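 Transplantable tumor in mice; compound-treated vs vehicle-treated groups. Read-out = treated/control ratio of the measured endpoint.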
# [1] = endpoint: mean survival time, dose: 100.0 mg/kg/injection, schedule: Q01DX009 (ip), vehicle: saline with Tween-80
# [2] = endpoint: mean survival time, dose: 100.0 mg/kg/injection, schedule: Q04DX003 (ip), vehicle: saline with Tween-80
# [3] = endpoint: mean survival time, dose: 200.0 mg/kg/injection, schedule: Q01DX009 (ip), vehicle: saline with Tween-80
# [4] = endpoint: mean survival time, dose: 200.0 mg/kg/injection, schedule: Q04DX003 (ip), vehicle: saline with Tween-80
# [5] = endpoint: mean survival time, dose: 400.0 mg/kg/injection, schedule: Q04DX003 (ip), vehicle: saline with Tween-80
compound,measurement,setting,value
COc1ccc(Cl)c2c1C1(CC(CC=O)C2)OCCO1 (stereo not drawn),T/C,"endpoint: mean survival time, dose: 75.0 mg/kg/injection, schedule: Q01DX001 (ip), vehicle: other",100 % of control
same,T/C,"endpoint: mean survival time, dose: 150.0 mg/kg/injection, schedule: Q01DX001 (ip), vehicle: other",94 % of control
same,T/C,"endpoint: mean survival time, dose: 300.0 mg/kg/injection, schedule: Q01DX001 (ip), vehicle: other",94 % of control
Cn1c(CC(O)(C(F)(F)Cl)C(F)(F)Cl)cc(=O)n1-c1ccccc1,T/C,"endpoint: mean survival time, dose: 50.0 mg/kg/injection, schedule: Q04DX003 (ip), vehicle: saline with Tween-80",101 % of control
same,T/C,[1],97 % of control
same,T/C,[2],97 % of control
same,T/C,[3],97 % of control
same,T/C,[4],97 % of control
same,T/C,[5],92 % of control
CC(C#N)CCCC#N (stereo not drawn),T/C,"endpoint: mean survival time, dose: 25.0 mg/kg/injection, schedule: Q01DX009 (ip), vehicle: saline with Tween-80",100 % of control
same,T/C,"endpoint: mean survival time, dose: 50.0 mg/kg/injection, schedule: Q01DX009 (ip), vehicle: saline with Tween-80",102 % of control
same,T/C,[2],101 % of control
CC(=O)Oc1ccc(/C=N/NC(N)=S)nc1,T/C,"endpoint: mean survival time, dose: 37.5 mg/kg/injection, schedule: Q01DX009 (ip), vehicle: saline with Tween-80",160 % of control
same,T/C,"endpoint: mean survival time, dose: 75.0 mg/kg/injection, schedule: Q01DX009 (ip), vehicle: saline with Tween-80",152 % of control
same,T/C,"endpoint: mean survival time, dose: 150.0 mg/kg/injection, schedule: Q01DX009 (ip), vehicle: saline with Tween-80",165 % of control
O=C(Cl)CCc1ccnc2ccccc12,T/C,"endpoint: mean survival time, dose: 100.0 mg/kg/injection, schedule: Q04DX003 (ip), vehicle: saline",95 % of control
same,T/C,"endpoint: mean survival time, dose: 200.0 mg/kg/injection, schedule: Q04DX003 (ip), vehicle: saline",101 % of control
same,T/C,"endpoint: mean survival time, dose: 400.0 mg/kg/injection, schedule: Q04DX003 (ip), vehicle: saline",113 % of control
Fc1c(F)c(F)c(-c2c(F)c(F)c(-c3c(F)c(F)c(-c4c(F)c(F)c(F)c(F)c4F)c(F)c3F)c(F)c2F)c(F)c1F,T/C,[1],96 % of control
same,T/C,[3],88 % of control
COC(=O)C[C@](O)(CCC(C)(C)O)C(=O)O[C@@H]1C(OC)=C[C@]23CCCN2CCc2cc4c(cc2[C@H]13)OCO4,T/C,"endpoint: median survival time, dose: 0.06 mg/kg/injection, schedule: Q01DX009 (ip), vehicle: saline",120 % of control
same,T/C,"endpoint: median survival time, dose: 0.12 mg/kg/injection, schedule: Q01DX009 (ip), vehicle: saline",119 % of control
same,T/C,"endpoint: median survival time, dose: 0.25 mg/kg/injection, schedule: Q01DX009 (ip), vehicle: saline",120 % of control
same,T/C,"endpoint: median survival time, dose: 0.5 mg/kg/injection, schedule: Q01DX009 (ip), vehicle: saline",118 % of control and 120 % of control
same,T/C,"endpoint: median survival time, dose: 4.0 mg/kg/injection, schedule: Q01DX009 (ip), vehicle: saline",153 % of control
COc1ccc(OC)c(NC(=O)NNC(=O)c2ccc(Cl)cc2Cl)c1,T/C,[1],91 % of control
same,T/C,[3],90 % of control
same,T/C,"endpoint: mean survival time, dose: 400.0 mg/kg/injection, schedule: Q01DX009 (ip), vehicle: saline with Tween-80",91 % of control
CC(C)=CCNc1ncnc2c1ncn2C1OC(CO)C(O)C1O (stereo not drawn),T/C,[1],95 % of control
same,T/C,[2],91 % of control
same,T/C,[4],101 % of control
same,T/C,[5],100 % of control
Cc1nc2cc(Cl)cc([N+](=O)[O-])c2nc1C,T/C,"endpoint: mean survival time, dose: 100.0 mg/kg/injection, schedule: Q01DX001 (ip), vehicle: other",103 % of control
same,T/C,"endpoint: mean survival time, dose: 200.0 mg/kg/injection, schedule: Q01DX001 (ip), vehicle: other",97 % of control
same,T/C,"endpoint: mean survival time, dose: 400.0 mg/kg/injection, schedule: Q01DX001 (ip), vehicle: other",97 % of control
Cc1ccc(C(=O)OCCN2CCN(c3ccccc3)CC2)c([N+](=O)[O-])c1OCc1ccccc1,T/C,"endpoint: mean survival time, dose: 100.0 mg/kg/injection, schedule: Q04DX002 (ip), vehicle: other",98 % of control
same,T/C,"endpoint: mean survival time, dose: 200.0 mg/kg/injection, schedule: Q04DX002 (ip), vehicle: other",91 % of control
same,T/C,"endpoint: mean survival time, dose: 400.0 mg/kg/injection, schedule: Q04DX002 (ip), vehicle: other",91 % of control
Cc1c([O-])[n+](Cc2ccccc2)nn1C,T/C,"endpoint: mean survival time, dose: 12.5 mg/kg/injection, schedule: Q01DX009 (ip), vehicle: water",97 % of control
same,T/C,"endpoint: mean survival time, dose: 25.0 mg/kg/injection, schedule: Q01DX009 (ip), vehicle: water",98 % of control
same,T/C,"endpoint: mean survival time, dose: 50.0 mg/kg/injection, schedule: Q01DX009 (ip), vehicle: water",95 % of control
same,T/C,"endpoint: mean survival time, dose: 100.0 mg/kg/injection, schedule: Q01DX009 (ip), vehicle: water",97 % of control
same,T/C,"endpoint: mean survival time, dose: 200.0 mg/kg/injection, schedule: Q01DX009 (ip), vehicle: water",93 % of control
